Columns and labels:
[1] = Further stability testing, thermal stress at 60° C. protected from light (Example 3); assay type: physicochemical
Experimental: (§1) The formulation solutions were prepared at a level of 1.0 mg/ml adrenaline (in the form of the tartrate), pH 3.4 containing 0.6% sodium chloride, with various molar ratios (0.25-0.59) of sodium metabisulfite added. The metabisulfite/adrenaline molar ratios tested were 0.25, 0.34, 0.42, 0.5 and 0.59, which correspond to sulfite/adrenaline ratios of 0.5, 0.68, 0.84, 1.0 and 1.18, respectively. For the ease of reference to the general description and claims of this specification, the said values correspond to a molar ratio of adrenaline to sulfite of 2.0, 1.47, 1.19, 1.0 and 0.85, respectively.
(§2) Each sample solution was split into two lots. For each sample solution, one lot was placed at the accelerated test temperature of 60° C., protected from light and the other lot placed in a photo-stability cabinet at 25° C. which provided 13400 lux visible light, 1.50 W·h/m^2 UV. Samples were pulled from both conditions at 0, 7, 14 and 28 days At each pull point, the appearance of the test solution was assessed, the pH measured and the adrenaline content measured together with impurities.

[2] = auto-oxidation rate increases with pH
[3] = 60° C., weeks 0-4; FIGS. 8 and 9
Experimental: (§3) A 1.1 mg/ml solution of adrenaline (6.004×10^−3 M), in the form of the tartrate, pH 3.4 and containing 0.6% sodium chloride was used. A range of metabisulfite antioxidant concentrations, with and without admixture of 0.25% di-sodium edetate as chelating agent were tested. The metabisulfite/adrenaline molar ratios tested were 0.1, 0.2, 0.5, 1.0 and 1.5, which correspond to sulfite/adrenaline ratios of 0.2, 0.4, 1.0, 2.0 and 3.0, respectively. For the ease of reference to the general description and claims of this specification, the said values correspond to a molar ratio of adrenaline to sulfite of 5.0, 2.5, 1.0, 0.5 and 0.33, respectively.
The accelerated test temperature was 60° C., protected from light, and samples were pulled at 0, 7, 14, 21 and 28 days. At each pull point, the appearance of the test solution was assessed, the pH measured and the solution assayed for adrenaline content. The appearance of degradation products was noted as area %. […]
Each sample solution was split into two lots. […] Samples were pulled from both conditions at 0, 7, 14 and 28 days At each pull point, the appearance of the test solution was assessed, the pH measured and the adrenaline content measured together with impurities.

[4] = 1.0 mg/ml adrenaline (tartrate), pH 3.4, 0.6% sodium chloride; 25° C., 13400 lux visible light, 1.50 W·h/m^2 UV, up to 28 days
Experimental: as §1, §2

[5] = 0.25% di-sodium edetate admixed; 60° C., up to 28 days; at the metabisulfite levels contemplated
Experimental: as §3
The accelerated test temperature was 60° C., protected from light, and samples were pulled at 0, 7, 14, 21 and 28 days. At each pull point, the appearance of the test solution was assessed, the pH measured and the solution assayed for adrenaline content. The appearance of degradation products was noted as area %.
[adr]^+ relates to samples containing 0.025% di-sodium edetate, whereas [adr] relates to samples containing no chelating agent.

best metabisulfite:adrenaline ratio on the basis of total impurities from heat stress ([1]; 1.0 mg/ml adrenaline (tartrate), pH 3.4, 0.6% sodium chloride, 60° C., up to 28 days) | first choice of metabisulfite content with respect to adrenaline ([1]; considering both stresses (thermal 60° C. and photo-stress), loss of adrenaline, FIGS. 4 and 5) | pH for maximum stability of epinephrine in solution [2] | optimum sulfite:adrenaline ratio [3] | best metabisulfite:adrenaline ratio on the basis of total impurities from photo-stress [4] | Compound | advantage of chelating agent for adrenaline solution stability [5]
0.42 | half molar | about 3.4 | about 1.0 | 0.5 | CNC[C@H](O)c1ccc(O)c(O)c1 [epinephrine, (R)-4-(1-hydroxy-2-(methylamino)ethyl)benzene-1,2-diol] | 
 |  |  |  |  | O=C([O-])CN(CCN(CC(=O)[O-])CC(=O)O)CC(=O)O.[Na+].[Na+] [di-sodium edetate] | no advantage
